Activity calls are given as the source filed them. The calls are words filed in the database; no cut-off is given here.
Tests used:
U2OS [1] = assay: Cytotoxicity against human U2OS cells expressing wild type RECQL5 and p53 mutant assessed as reduction in colony formation measured after 8 to 10 days by clonogenic survival assay; assay type: functional, cell-based; details: time 8-10 day
MCF7 [2] = assay: Inhibition of homologous recombinant repair in human MCF7 cells expressing RECQL5 wildtype/ SceGFP/iGFP mutants assessed as I-SceI induced generation of resected double stand breaks by measuring GFP-expressing cells at 10 uM measured after 48 hrs by flow cytometry analysis; assay type: functional, cell-based
[3] = Toxicity in nude mouse xenografted with human MCF7 cells assessed as morphological changes in kidney at 50 mg/kg, po administered via oral gavage and measured after 30 days; assay type: organism-based; details: in vivo, 720 h, time 30 day
MCF7 [4] = assay: Inhibition of homologous recombinant repair in RECQL5 knock out human MCF7 cells assessed as stabilization of RAD51-RECQL5 interaction by measuring increase in RAD51 foci formation at 20 uM measured after 4 to 24 hrs by immunofluorescence microscopic analysis; assay type: functional, cell-based; details: time 4-24 hrs
MCF7 [5] = assay: Induction of DNA damage in RECQL5 knock out human MCF7 cells assessed as double strand breaks by measuring increase in phosphorylation of RPA2 at 20 uM measured after 4 to 24 hrs by Western blot analysis; assay type: functional, cell-based; details: time 4-24 hrs
[6] = Toxicity in […] mouse assessed as fold change in alkaline phosphatase level at 100 mg/kg, po administered as single dose via gavage measured after 30 days relative to control; assay type: organism-based; details: in vivo, 720 h, time 30 day
MCF7 [7] = assay: Induction of DNA damage in human MCF7 cells expressing wild type RECQL5 assessed as double strand breaks by measuring increase in phosphorylation of RPA2 at 20 uM measured after 4 to 24 hrs by Western blot analysis; assay type: functional, cell-based; details: time 4-24 hrs, TDE = time-dependent effect
[8] = Selectivity ratio of IC20 for cytotoxicity against RECQL5 knock out human MCF7 cells to IC20 for cytotoxicity against human MCF7 cells expressing RECQL5-WT; assay type: functional
MDA-MB-231 = assay: Cytotoxicity against ER/PR/HER2-negative human MDA-MB-231 cells expressing wild type RECQL5 and p53 mutant assessed as reduction in colony formation measured after 8 to 10 days by clonogenic survival assay; assay type: functional, cell-based; details: time 8-10 day
[9] = Chronic toxicity in […] mouse assessed as effect on food/water uptake at 100 mg/kg, po administered as single dose via gavage measured for 30 days; assay type: organism-based; details: in vivo, 720 h, time 30 day
[10] = Chronic toxicity in […] mouse assessed as change in stool texture at 100 mg/kg, po administered as single dose via gavage measured for 30 days; assay type: organism-based; details: in vivo, 720 h, time 30 day
MCF7 [11] = assay: Cytotoxicity against human MCF7 cells with shRNA-mediated RECQL5 depletion assessed as reduction in cell viability at 6 to 25 uM measured after 8 to 10 days by clonogenic survival assay; assay type: functional, cell-based; details: dose 6-25 µM, time 8-10 day
MCF7 [12] = assay: Cytotoxicity against human MCF7 cells expressing RECQL5-RFP K58M helicase dead mutant assessed as sensitizing activity by measuring colony survival at 5 to 20 uM measured after 8 to 10 days by clonogenic survival assay; assay type: functional, cell-based; details: dose 5-20 µM, time 8-10 day
MCF7 [13] = assay: Induction of apoptosis in human MCF7 cells expressing wild type RECQL5 assessed as increase in sub-G1 cell population measured after 72 hrs by propidium iodide/RNase A staining based flow cytometric analysis; assay type: functional; details: dose 2.5-20 µM
MCF7 [14] = assay: Induction of apoptosis in RECQL5 knock out human MCF7 cells assessed as increase in sub-G1 cell population measured after 72 hrs by propidium iodide/RNase A staining based flow cytometric analysis; assay type: functional; details: dose 2.5-20 µM
U2OS [15] = assay: Induction of apoptosis in RECQL5 depleted human U2OS cells assessed as cell death measured after 72 hrs by propidium iodide/RNase A staining based flow cytometric analysis; assay type: functional
T47D [16] = assay: Induction of DNA damage in RECQL5 knock out human T47D cells assessed as double strand breaks by measuring increase in gamma-H2AX foci formation incubated for 24 hrs by immunofluorescence microscopic analysis; assay type: functional, cell-based
MCF7 [17] = assay: Induction of DNA damage in human MCF7 cells expressing wild type RECQL5 assessed as double strand breaks by measuring increase in phosphorylation of p53 at S15 residue at 20 uM measured up to 24 hrs by Western blot analysis; assay type: functional, cell-based; details: time hrs <=24
MCF7 [18] = assay: Effect on NHEJ-mediated double strand break repair in human MCF7 cells expressing wild type RECQL5 assessed as accumulation of KU80 on chromatin at 20 uM measured up to 24 hrs by Western blot analysis; assay type: cell-based; details: time hrs <=24
MCF7 [19] = assay: Effect on NHEJ-mediated double strand break repair in human MCF7 cells expressing wild type RECQL5 assessed as accumulation of DNA-dependent protein kinase on chromatin at 20 uM measured up to 24 hrs by Western blot analysis; assay type: cell-based; details: time hrs <=24
MCF7 [20] = assay: Effect on NHEJ-mediated double strand break repair in RECQL5 knock out human MCF7 cells assessed as accumulation of DNA-dependent protein kinase on chromatin at 20 uM measured up to 24 hrs by Western blot analysis; assay type: cell-based; details: time hrs <=24
MCF7 [21] = assay: Effect on homologous recombinant repair in human MCF7 cells expressing wild type RECQL5 assessed as accumulation of NBS1 protein on chromatin at 20 uM incubated for 4 to 24 hrs by Western blot analysis; assay type: functional, cell-based; details: time 4-24 hrs, TDE = time-dependent effect
MCF7 [22] = assay: Effect on homologous recombinant repair in RECQL5 knock out human MCF7 cells assessed as accumulation of MRE11 protein on chromatin at 20 uM incubated for 4 to 24 hrs by Western blot analysis; assay type: functional, cell-based; details: time 4-24 hrs
MCF7 [23] = assay: Effect on homologous recombinant repair in RECQL5 knock out human MCF7 cells assessed as accumulation of RAD50 protein on chromatin at 20 uM incubated for 4 to 24 hrs by Western blot analysis; assay type: functional, cell-based; details: time 4-24 hrs
MCF7 [24] = assay: Stabilization of RECQL5-RAD51 complex in RECQL5 knock out human MCF7 cells expressing wild type RECQL5-FLAG assessed as increase in RAD51-RECQL5-FLAG pull down at 20 uM measured after 8 hrs by coimmunoprecipitation assay; assay type: cell-based
T47D [25] = assay: Stabilization of RECQL5-RAD51 complex in RECQL5 knock out human T47D cells expressing wild type RECQL5-FLAG assessed as increase in RAD51-RECQL5-FLAG pull down at 20 uM measured after 8 hrs by coimmunoprecipitation assay; assay type: cell-based
MCF7 [26] = assay: Induction of cell sensitization to cisplatin in human MCF-7 cells assessed as reduction in colony formation at 5 uM measured after 8 to 10 days by clonogenic survival assay; assay type: functional, cell-based; details: time 8-10 day
MCF7 [27] = assay: Induction of mitotic catastrophe phenotype in human MCF7 cells assessed as nuclear bridge formation at 20 uM pretreated with cisplatin for 8 hrs followed by compound addition and measured after 24 hrs by immunofluorescence microscopic analysis; assay type: functional, cell-based
MCF7 [28] = assay: Induction of mitotic catastrophe phenotype in human cisplatin-resistant MCF7 cells assessed as micronucleus formation at 20 uM pretreated with cisplatin for 8 hrs followed by compound addition and measured after 24 hrs by immunofluorescence microscopic analysis; assay type: functional, cell-based
MCF7 [29] = assay: Induction of mitotic catastrophe phenotype in human cisplatin-resistant MCF7 cells assessed as nuclear bridge formation at 20 uM pretreated with cisplatin for 8 hrs followed by compound addition and measured after 24 hrs by immunofluorescence microscopic analysis; assay type: functional, cell-based

With `O=C(Nc1cc(C(F)(F)F)cc(C(F)(F)F)c1)N[C@@H](c1ccccc1)c1nnc(SCc2ccccc2)o1` the Activity (U2OS [1]) was “Active”, the inhibition (MCF7 [2]) was “Active” and the Activity [3] was “Non-Toxic”. The inhibition (MCF7 [4]) was “inactive”, the Activity (MCF7 [5]) was “inactive” and the “fold change (FC)” value [6] was 0.97. The Activity (MCF7 [7]) was “Tde”, the selectivity ratio [8] was 2.7 and the Activity (MDA-MB-231) was “Active”. For the same compound, the Activity [9] was “Non-Toxic”, the Activity [10] was “Non-Toxic” and the Activity (MCF7 [11]) was “inactive”. For the same compound, the Activity (MCF7 [12]) was “Active”, the Activity (MCF7 [13]) was “Dose-Dependent Effect” and the Activity (MCF7 [14]) was “Dose-Dependent Effect”. For the same compound, the Activity (U2OS [15]) was “inactive”, the Activity (T47D [16]) was “inactive” and the Activity (MCF7 [17]) was “Active”. For the same compound, the Activity (MCF7 [18]) was “inactive”, the Activity (MCF7 [19]) was “inactive” and the Activity (MCF7 [20]) was “inactive”. For the same compound, the Activity (MCF7 [21]) was “Tde”, the Activity (MCF7 [22]) was “inactive” and the Activity (MCF7 [23]) was “inactive”. The Activity (MCF7 [24]) was “Active”, the Activity (T47D [25]) was “Active” and the Activity (MCF7 [26]) was “Active”. For the same compound, the Activity (MCF7 [27]) was “Active”, the Activity (MCF7 [28]) was “Active” and the Activity (MCF7 [29]) was “Active”.
